Measured values published in US9708368B2, “Linear peptide antibiotics” (priority 2012, dated 2017).
pIC50: −log10 of the molar value. In brackets after ≈: the same amount, converted by molar mass. Square brackets hold non-standard residues; d marks the D form. Peptide text beside a SMILES is read from it. * marks the point of attachment. boroAla((+)-pinanediol) = C[C@H](N*)B1O[C@@H]2C[C@@H]3C[C@@H](C3(C)C)[C@]2(C)O1; Biphenylcarbonyl(4'-Bu) = CCCCc1ccc(-c2ccc(C(=O)*)cc2)cc1; X1 = C[C@H](N*)B1OC2C[C@@H]3C[C@@H](C3(C)C)[C@]2(C)O1; Benzoyl(4-(4-Cl-Ph)) = O=C(c1ccc(-c2ccc(Cl)cc2)cc1)*; Pro(4S-NH2) = N[C@@H]1CN[C@H](C(=O)O)C1; boroAla = C[C@H](N*)B(O)O; Aze = O=C(O)[C@@H]1CCN1; Dab = NCC[C@H](N)C(=O)O; Abu = CC[C@H](N)C(=O)O; Dap = NC[C@H](N)C(=O)O

How the values were obtained:
[1] = test system: Escherichia coli strain MC4100 IMP-4213, which harbors an LptD mutation; conditions: Method B; E. coli MC4100 IMP-4213 (LptD mutation); 35° C., 22 hours
Experimental: In vitro antimicrobial activity of each compound was determined by measuring minimal inhibitor concentrations (MICs) using the broth micro-dilution technique as approved by the Clinical and Laboratory Standards Institute (CLSI). […] Bacterial inocula were prepared by scraping cells into 1 mL of testing media (cation adjusted Mueller Hinton Broth supplemented with 0.002% v/v Tween-80) and diluting to a final OD600 nm of 0.01.
Test compounds were prepared in DMSO at a concentration of 10 mg/ml. […] Bacterial inocula were added to the two fold serial dilutions of test compounds to a final density of OD OD600 nm of 0.0005 and incubated stationarily at 35° C. for 22 hours, after which the plates were examined visually.

[2] = test system: methicillin resistant Staphylococcus aureus (MRSA) strain USA300 (NRS384); conditions: Method B, 35° C., 22 hours
[3] = biological target: S. aureus SPase (Staphylococcus aureus, UniProt P0A070); test: biochemical
[4] = biological target: E. coli SPase (Escherichia coli, UniProt P00803); test: Biochemical SPase activity assay (fluorogenic peptide substrate), E. coli enzyme

Structure (SMILES) | MIC (μg/mL) E. coli [1] [µg/mL] | MIC (μg/mL) S. aureus [2] [µg/mL] | pIC50 [3] | pIC50 [4]
CCCCc1ccc(-c2ccc(C(=O)N[C@@H](CN)C(=O)N[C@@H](CN)C(=O)N[C@@H](C)C(=O)N[C@@H](CC(C)C)C(=O)N[C@@H](C)B3OC4C[C@@H]5C[C@@H](C5(C)C)[C@]4(C)O3)cc2)cc1 (some centres unmarked) [Compound 170] ({Biphenylcarbonyl(4'-Bu)}-[Dap][Dap]AL-X1) | 0.4 (≈ 0.49 µM) | 2 (≈ 2.45 µM) | 6.28 | 8.00
CCCCc1ccc(-c2ccc(C(=O)N[C@@H](CCN)C(=O)N[C@@H](CCN)C(=O)N[C@@H](C)C(=O)N[C@@H](CC(C)C)C(=O)N[C@@H](C)B3O[C@@H]4C[C@@H]5C[C@@H](C5(C)C)[C@]4(C)O3)cc2)cc1 [Compound 171] ({Biphenylcarbonyl(4'-Bu)}-[Dab][Dab]AL-{boroAla((+)-pinanediol)}) | 0.25 (≈ 0.296 µM) | 0.71 (≈ 0.841 µM) | 6.28 | 7.57
CC(C)C[C@H](NC(=O)[C@H](C)NC(=O)[C@H](CN)NC(=O)[C@H](CN)NC(=O)c1ccc(-c2ccc(Cl)cc2)cc1)C(=O)N[C@@H](C)B1O[C@@H]2C[C@@H]3C[C@@H](C3(C)C)[C@]2(C)O1 [Compound 172] ({Benzoyl(4-(4-Cl-Ph))}-[Dap][Dap]AL-{boroAla((+)-pinanediol)}) | 8 (≈ 10.1 µM) | 8 (≈ 10.1 µM) | 6.12 | 7.70
CC(C)C[C@H](NC(=O)[C@H](C)NC(=O)[C@H](CCN)NC(=O)[C@H](CCN)NC(=O)c1ccc(-c2ccc(Cl)cc2)cc1)C(=O)N[C@@H](C)B1OC2C[C@@H]3C[C@@H](C3(C)C)[C@]2(C)O1 (some centres unmarked) [Compound 173] ({Benzoyl(4-(4-Cl-Ph))}-[Dab][Dab]AL-X1) | 2 (≈ 2.43 µM) | 2 (≈ 2.43 µM) | 6.26 | 7.16
CCCCc1ccc(-c2ccc(C(=O)N[C@@H](CCCNC(=N)N)C(=O)N[C@H](C(=O)N[C@@H](C)C(=O)N[C@@H](CCCCN)C(=O)N[C@@H](C)B3O[C@@H]4C[C@@H]5C[C@@H](C5(C)C)[C@]4(C)O3)[C@@H](C)O)cc2)cc1 [Compound 174] ({Biphenylcarbonyl(4'-Bu)}-RTAK-{boroAla((+)-pinanediol)}) | 0.5 (≈ 0.546 µM) | 0.25 (≈ 0.273 µM) | 6.89 | 7.23
C[C@H](NC(=O)[C@H](CCCCN)NC(=O)[C@H](C)NC(=O)[C@@H](NC(=O)[C@H](CN)NC(=O)c1ccc(-c2ccc(Cl)cc2)cc1)[C@@H](C)O)B(O)O [Compound 175] ({Benzoyl(4-(4-Cl-Ph))}-[Dap]TAK-boroAla) | 2 (≈ 2.9 µM) | 1.2 (≈ 1.74 µM) | 6.96 | 8.26
CC(C)C[C@H](NC(=O)[C@H](C)NC(=O)[C@H](CN)NC(=O)[C@H](CN)NC(=O)c1ccc(-c2ccc(Cl)cc2)cc1)C(=O)N[C@@H](C)B(O)O [Compound 176] ({Benzoyl(4-(4-Cl-Ph))}-[Dap][Dap]AL-boroAla) | 8 (≈ 12.1 µM) | 16 (≈ 24.2 µM) | 5.92 | 7.25
CC(C)C[C@H](NC(=O)[C@H](C)NC(=O)[C@H](CCN)NC(=O)[C@H](CCN)NC(=O)c1ccc(-c2ccc(Cl)cc2)cc1)C(=O)N[C@@H](C)B(O)O [Compound 177] ({Benzoyl(4-(4-Cl-Ph))}-[Dab][Dab]AL-boroAla) | 2 (≈ 2.91 µM) | 2 (≈ 2.91 µM) | 6.19 | 7.15
CCCCc1ccc(-c2ccc(C(=O)N[C@@H](CCN)C(=O)N[C@H](C(=O)N[C@@H](C)C(=O)N[C@@H](CCCCN)C(=O)N[C@@H](C)B(O)O)[C@@H](C)O)cc2)cc1 [Compound 178] ({Biphenylcarbonyl(4'-Bu)}-[Dab]TAK-boroAla) | 0.25 (≈ 0.344 µM) | 0.063 (≈ 0.0868 µM) | 7.24 | 8.51
CCCCc1ccc(-c2ccc(C(=O)N[C@@H](CCN)C(=O)N[C@@H](CCN)C(=O)N[C@@H](C)C(=O)N[C@@H](CC(C)C)C(=O)N[C@@H](C)B(O)O)cc2)cc1 [Compound 179] ({Biphenylcarbonyl(4'-Bu)}-[Dab][Dab]AL-boroAla) | 0.5 (≈ 0.705 µM) | 2 (≈ 2.82 µM) | 6.24 | 7.66
C[C@H](NC(=O)[C@H](CCCCN)NC(=O)[C@H](C)NC(=O)[C@H](CCCCN)NC(=O)[C@H](CN)NC(=O)c1ccc(-c2ccc(Cl)cc2)cc1)B(O)O [Compound 180] ({Benzoyl(4-(4-Cl-Ph))}-[Dap]KAK-boroAla) | 1 (≈ 1.39 µM) | 1 (≈ 1.39 µM) | 6.55 | 7.96
CCCCc1ccc(-c2ccc(C(=O)N3C[C@@H](N)C[C@H]3C(=O)N3CCC[C@H]3C(=O)N[C@@H](C)C(=O)N[C@@H](CCCCN)C(=O)N[C@@H](C)B3OC4C[C@@H]5C[C@@H](C5(C)C)[C@]4(C)O3)cc2)cc1 (stereo partly drawn) [Compound 181] ({Biphenylcarbonyl(4'-Bu)}-[Pro(4S-NH2)]PAK-X1) | 0.5 (≈ 0.576 µM) | 0.4 (≈ 0.461 µM) | 7.74 | 8.27
CCCCc1ccc(-c2ccc(C(=O)N[C@@H](CCN)C(=O)N[C@@H](CCN)C(=O)N[C@@H](C)C(=O)N[C@@H](CC)C(=O)N[C@@H](C)B3OC4C[C@@H]5C[C@@H](C5(C)C)[C@]4(C)O3)cc2)cc1 (some centres unmarked) [Compound 182] ({Biphenylcarbonyl(4'-Bu)}-[Dab][Dab]A[Abu]-X1) | 0.71 (≈ 0.87 µM) | 4 (≈ 4.9 µM) | 5.96 | 7.46
CCCCc1ccc(-c2ccc(C(=O)N[C@@H](CCN)C(=O)N3CC[C@H]3C(=O)N[C@@H](C)C(=O)N[C@@H](CCCCN)C(=O)N[C@@H](C)B3O[C@@H]4C[C@@H]5C[C@@H](C5(C)C)[C@]4(C)O3)cc2)cc1 [Compound 183] ({Biphenylcarbonyl(4'-Bu)}-[Dab][Aze]AK-{boroAla((+)-pinanediol)}) | 1 (≈ 1.19 µM) | 1 (≈ 1.19 µM) | 6.21 | 7.70
CCCCc1ccc(-c2ccc(C(=O)N[C@@H](CN)C(=O)N[C@@H](CCCCN)C(=O)N[C@@H](C)C(=O)N[C@@H](CCCCN)C(=O)N[C@@H](C)B3O[C@@H]4C[C@@H]5C[C@@H](C5(C)C)[C@]4(C)O3)cc2)cc1 [Compound 184] ({Biphenylcarbonyl(4'-Bu)}-[Dap]KAK-{boroAla((+)-pinanediol)}) | 0.13 (≈ 0.149 µM) | 0.25 (≈ 0.286 µM) | 6.52 | 8.23
CCCCc1ccc(-c2ccc(C(=O)N[C@@H](CCN)C(=O)N[C@@H](CCN)C(=O)N[C@@H](C)C(=O)N[C@@H](CO)C(=O)N[C@@H](C)B3O[C@@H]4C[C@@H]5C[C@@H](C5(C)C)[C@]4(C)O3)cc2)cc1 [Compound 185] ({Biphenylcarbonyl(4'-Bu)}-[Dab][Dab]AS-{boroAla((+)-pinanediol)}) | 0.71 (≈ 0.868 µM) | 4 (≈ 4.89 µM) | 6.24 | 7.39
CCCCc1ccc(-c2ccc(C(=O)N[C@@H](CN)C(=O)N[C@@H](CCCCN)C(=O)N[C@@H](C)C(=O)N[C@@H](CCCCN)C(=O)N[C@@H](C)B(O)O)cc2)cc1 [Compound 186] ({Biphenylcarbonyl(4'-Bu)}-[Dap]KAK-boroAla) | 0.13 (≈ 0.176 µM) | 0.13 (≈ 0.176 µM) | 6.43 | 8.16
